Experimental data from BindingDB's records for patent US11174245 (Boehringer Ingelheim International, 2021).

Molecular target: Epidermal growth factor receptor [695-1022,T790M,C797S,L858R] (Homo sapiens, UniProt P00533, C797S/L858R/T790M)
Test: Biochemical EGFR Inhibition Assays ([…])
Set-up: 695-1022
Procedure: 5 μL of EGFR enzyme form in assay buffer (50 mM HEPES pH 7.3, 10 mM MgCl2, 1 mM EGTA, 0.01% Tween 20, 2 mM DTT) are dispensed into columns 1-23, than 5 μL of ATP and ULight-poly-GT substrate (PerkinElmer; TRF0100-M) mix in assay buffer is added to all wells (final assay concentration of the ULight-poly-GT substrate 200 nM). Each of the different EGFR enzyme form assays is available at high ATP levels (final assay concentration 100 μM). After 90 minutes incubation at room temperature 5 μL EDTA (final assay concentration 50 mM) and LANCE Eu-anti-P-Tyr (PT66) antibody (PerkinElmer, AD0069) (final assay concentration 6 nM) mix are added to stop the reaction and start the binding of the antibody. […] Each plate contains 16 wells of a negative control (diluted DMSO instead of test compound; w EGFR enzyme form; column 23) and 16 wells of a positive control (diluted DMSO instead of test compound; w/o EGFR enzyme form; column 24). Negative and positive control values are used for normalization and IC50 values are calculated and analysed using a 4 parametric logistic model.

Chain of Epidermal growth factor receptor [695-1022,T790M,C797S,L858R] (P00533 695-1022 T790M/C797S/L858R): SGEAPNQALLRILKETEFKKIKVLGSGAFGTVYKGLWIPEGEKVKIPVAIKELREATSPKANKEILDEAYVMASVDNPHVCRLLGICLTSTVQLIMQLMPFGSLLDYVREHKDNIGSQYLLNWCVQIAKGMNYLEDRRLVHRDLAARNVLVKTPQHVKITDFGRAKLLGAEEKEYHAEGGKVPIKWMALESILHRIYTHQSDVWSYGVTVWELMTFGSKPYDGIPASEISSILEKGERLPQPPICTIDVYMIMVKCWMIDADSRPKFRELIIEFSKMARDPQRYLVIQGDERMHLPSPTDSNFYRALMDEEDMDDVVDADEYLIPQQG

- IC50: 3 nM
SMILES: COc1ccncc1-c1cc(C(=O)/N=c2\[nH]c3cc(C4CCN(C(C)=O)CC4)ccc3n2CC(C)(C)O)ccn1 [US11174245, # I-031]
